The results in this text go back to patent publication US9073853B2, “Cycloalkane carboxylic acid derivatives as CXCR3 receptor antagonists” (Sanofi, priority 2011, dated 2015).

What is called IC50 is the concentration needed to halve the response being measured.

Chain of human CXCR3-A receptor (P49682 whole entry): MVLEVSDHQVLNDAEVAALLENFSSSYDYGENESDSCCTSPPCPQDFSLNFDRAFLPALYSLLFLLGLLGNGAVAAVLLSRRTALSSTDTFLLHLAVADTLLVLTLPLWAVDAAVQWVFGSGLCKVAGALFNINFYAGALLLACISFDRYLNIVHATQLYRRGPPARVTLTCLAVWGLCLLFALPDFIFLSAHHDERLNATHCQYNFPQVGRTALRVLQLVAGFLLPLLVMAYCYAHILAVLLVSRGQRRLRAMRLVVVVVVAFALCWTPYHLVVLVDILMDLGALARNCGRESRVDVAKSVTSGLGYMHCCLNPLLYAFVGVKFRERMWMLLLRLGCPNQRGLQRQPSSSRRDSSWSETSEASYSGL

The first assay deals with human CXCR3-A receptor (Homo sapiens (Human), UniProt P49682). The experiment in a line: 125I-CXCL10 competition radioligand binding assay. As to conditions: displacement of 125I-CXCL10 from membranes of CHO cells expressing human recombinant CXCR3-A. In a few lines:
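Membranes from a recombinant cell line expressing human CXCR3-A (10-20 μg protein) were incubated with 125I-CXCL10 and test compound for 60 min at 25° C, then filtered onto PEI-soaked GF/B filters and gamma-counted. IC50 and Hill slope came from four-parameter nonlinear fitting of competition curves.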
(In general: Loss of bound radioactivity is the signal in a displacement assay; it reports binding, not function.)
With `COc1cc(CN(C[C@@H]2C[C@H]2C(=O)O)C(C)c2ccc3c(c2)CCO3)ccc1OCCN1C(=O)CCC1=O` (stereo partly drawn) [Example 112, (1R,2R)-2-[([1-(2,3-Dihydro-benzofuran-5-yl)-ethyl]-{4-[2-(2,5-dioxo-pyrrolidin-1-yl)-ethoxy]-3-methoxy-benzyl}-amino)-methyl]-cyclopropanecarboxylic acid], the IC50 is 145 nM.

Regarding `CCOC(=O)[C@H]1C[C@H]1CN(Cc1ccc(OCCN2C(=O)CCC2=O)c(OC)c1)C(C)c1ccc2c(c1)CCO2` (stereo partly drawn) [Example 113, (1S,2R)-2-[([1-(2,3-Dihydro-benzofuran-5-yl)-ethyl]-{4-[2-(2,5-dioxo-pyrrolidin-1-yl)-ethoxy]-3-methoxy-benzyl}-amino)-methyl]-cyclopropanecarboxylic acid ethyl ester], the IC50 turned out to be 82 nM.

As for `COc1cc(CN(C[C@@H]2C[C@@H]2C(=O)O)C(C)c2ccc3c(c2)CCO3)ccc1OCCN1C(=O)CCC1=O` (stereo partly drawn) [Example 114, (1S,2R)-2-[([1-(2,3-Dihydro-benzofuran-5-yl)-ethyl]-{4-[2-(2,5-dioxo-pyrrolidin-1-yl)-ethoxy]-3-methoxy-benzyl}-amino)-methyl]-cyclopropanecarboxylic acid], the IC50 came to 180 nM.

As to `CCC(c1ccc(Cl)cc1)N(Cc1ccc(OCCN2C(=O)CN(C)C2=O)c(C)c1)C[C@@H]1[C@@H](C(=O)O)C1(C)C` (stereo partly drawn) [Example 115, (1R,3R)-3-[([1-(4-Chloro-phenyl)-propyl]-{3-methyl-4-[2-(3-methyl-2,5-dioxo-imidazolidin-1-yl)-ethoxy]-benzyl}-amino)-methyl]-2,2-dimethyl-cyclopropanecarboxylic acid], the IC50 worked out at 244 nM.

Consider `CCC(c1ccc(Cl)cc1)N(Cc1ccc(OCCN2C(=O)CN(C)C2=O)c(OC)c1)C[C@H]1[C@H](C(=O)O)C1(C)C` (stereo partly drawn) [Example 116, (1S,3S)-3-[([1-(4-Chloro-phenyl)-propyl]-{3-methoxy-4-[2-(3-methyl-2,5-dioxo-imidazolidin-1-yl)-ethoxy]-benzyl}-amino)-methyl]-2,2-dimethyl-cyclopropanecarboxylic acid], for which the IC50 was found to be 160 nM.

For the compound `CCC(c1ccc(Cl)cc1)N(Cc1ccc(OCCN2C(=O)CCC2=O)c(OC)c1)C[C@H]1[C@H](C(=O)O)C1(C)C` (stereo partly drawn) [Example 117, (1S,3S)-3-[([1-(4-Chloro-phenyl)-propyl]-{4-[2-(2,5-dioxo-pyrrolidin-1-yl)-ethoxy]-3-methoxy-benzyl}-amino)-methyl]-2,2-dimethyl-cyclopropanecarboxylic acid], the IC50 is 71 nM.

In the case of `CCC(c1ccc(Cl)cc1)N(Cc1ccc(OCCN2C(=O)CCC2=O)c(C)c1)C[C@@H]1[C@@H](C(=O)O)C1(C)C` (stereo partly drawn) [Example 118, (1R,3R)-3-[([1-(4-Chloro-phenyl)-propyl]-{4-[2-(2,5-dioxo-pyrrolidin-1-yl)-ethoxy]-3-methyl-benzyl}-amino)-methyl]-2,2-dimethyl-cyclopropanecarboxylic acid], the 50% inhibitory concentration (IC50) came out at 190 nM.

As for `COc1cc(CN(CC2(C(=O)O)CC2)C2CCc3cc(Cl)ccc32)ccc1OCCN1C(=O)CCC1=O` (stereo not shown) [Example 119, 1-[((5-Chloro-indan-1-yl)-{4-[2-(2,5-dioxo-pyrrolidin-1-yl)-ethoxy]-3-methoxy-benzyl}-amino)-methyl]-cyclopropanecarboxylic acid], the IC50 turned out to be 3200 nM.

As to `COc1cc(CN(C(C)c2ccc3c(c2)CCO3)[C@H]2C[C@H](C(=O)O)C2)ccc1OCCn1c(=O)ccn(C)c1=O` (stereo partly drawn) [Example 120, trans-3-([1-(2,3-Dihydro-benzofuran-5-yl)-ethyl]-{3-methoxy-4-[2-(3-methyl-2,6-dioxo-3,6-dihydro-2H-pyrimidin-1-yl)-ethoxy]-benzyl}-amino)-cyclobutanecarboxylic acid], the half-inhibitory concentration (IC50) stood at 2900 nM.

Consider `COc1cc(CN(C(C)c2ccc3c(c2)CCO3)[C@H]2C[C@@H](C(=O)O)C2)ccc1OCCn1c(=O)ccn(C)c1=O` (stereo partly drawn) [Example 121, cis-3-([1-(2,3-Dihydro-benzofuran-5-yl)-ethyl]-{3-methoxy-4-[2-(3-methyl-2,6-dioxo-3,6-dihydro-2H-pyrimidin-1-yl)-ethoxy]-benzyl}-amino)-cyclobutanecarboxylic acid], for which the IC50 turned out to be 152 nM.

In the case of `COc1cc(CN([C@H]2C[C@@H](C(=O)O)C2)[C@H](C)c2ccc3c(c2)CCO3)ccc1OCCn1c(=O)ccn(C)c1=O` [Example 122, cis-3-([(R)-1-(2,3-Dihydro-benzofuran-5-yl)-ethyl]-{3-methoxy-4-[2-(3-methyl-2,6-dioxo-3,6-dihydro-2H-pyrimidin-1-yl)-ethoxy]-benzyl}-amino)-cyclobutanecarboxylic acid], the IC50 worked out at 70 nM.

Turning to `COc1cc(CN([C@H]2C[C@@H](C(=O)O)C2)[C@@H](C)c2ccc3c(c2)CCO3)ccc1OCCn1c(=O)ccn(C)c1=O` [Example 123, cis-3-([(S)-1-(2,3-Dihydro-benzofuran-5-yl)-ethyl]-{3-methoxy-4-[2-(3-methyl-2,6-dioxo-3,6-dihydro-2H-pyrimidin-1-yl)-ethoxy]-benzyl}-amino)-cyclobutanecarboxylic acid], the IC50 stood at 7000 nM.

As to `Cc1cc(CN(C(C)c2ccc(Cl)c(F)c2)[C@H]2C[C@@H](C(=O)O)C2)ccc1OCCN1C(=O)CCC1=O` (stereo partly drawn) [Example 125, cis-3-([1-(4-Chloro-3-fluoro-phenyl)-ethyl]-{4-[2-(2,5-dioxo-pyrrolidin-1-yl)-ethoxy]-3-methyl-benzyl}-amino)-cyclobutanecarboxylic acid], the IC50 turned out to be 465 nM.

As to `COc1cc(CN(C2CC(C(=O)O)C2)C2CCc3cc(Cl)ccc32)ccc1OCCN1C(=O)CCC1=O` (stereo not shown) [Example 127, 3-((5-Chloro-indan-1-yl)-{4-[2-(2,5-dioxo-pyrrolidin-1-yl)-ethoxy]-3-methoxy-benzyl}-amino)-cyclobutanecarboxylic acid], the IC50 was 1090 nM.

Take `Cc1cc([C@@H](C)N(Cc2ccc(OCCN3C(=O)CCC3=O)c(C)c2)[C@H]2C[C@@H](C(=O)O)C2)ccc1Cl` [Example 129, cis-3-([(R)-1-(4-Chloro-3-methyl-phenyl)-ethyl]-{4-[2-(2,5-dioxo-pyrrolidin-1-yl)-ethoxy]-3-methyl-benzyl}-amino)-cyclobutanecarboxylic acid]: the IC50 is 105 nM.

As to `Cc1cc([C@H](C)N(Cc2ccc(OCCN3C(=O)CCC3=O)c(C)c2)[C@H]2C[C@H](C(=O)O)C2)ccc1Cl` [Example 130], the IC50 worked out at 5300 nM.

For `Cc1cc([C@H](C)N(Cc2ccc(OCCN3C(=O)CCC3=O)c(C)c2)[C@H]2C[C@@H](C(=O)O)C2)ccc1Cl` [Example 131, cis-3-([(S)-1-(4-Chloro-3-methyl-phenyl)-ethyl]-{4-[2-(2,5-dioxo-pyrrolidin-1-yl)-ethoxy]-3-methyl-benzyl}-amino)-cyclobutanecarboxylic acid], the IC50 is 6500 nM.

For `Cc1cc(CN([C@H]2C[C@@H](C(=O)O)C2)[C@H](C)c2ccc(Cl)cc2)ccc1OCCN1C(=O)CCC1=O` [Example 132, cis-3-([(R)-1-(4-Chloro-phenyl)-ethyl]-{4-[2-(2,5-dioxo-pyrrolidin-1-yl)-ethoxy]-3-methyl-benzyl}-amino)-cyclobutanecarboxylic acid], the IC50 was 170 nM.

As for `Cc1cc(CN(C2CCc3cc(Cl)ccc32)[C@H]2C[C@@H](C(=O)O)C2)ccc1OCCN1C(=O)CCC1=O` (stereo partly drawn) [Example 133, cis-3-((5-Chloro-indan-1-yl)-{4-[2-(2,5-dioxo-pyrrolidin-1-yl)-ethoxy]-3-methyl-benzyl}-amino)-cyclobutanecarboxylic acid], the IC50 amounted to 1640 nM.

Turning to `Cc1cc(CN(C(C)c2ccc3c(c2)CCO3)[C@H]2C[C@@H](C(=O)O)C2)ccc1OCCn1c(=O)ccn(C)c1=O` (stereo partly drawn) [Example 134, cis-3-([1-(2,3-Dihydro-benzofuran-5-yl)-ethyl]-{3-methyl-4-[2-(3-methyl-2,6-dioxo-3,6-dihydro-2H-pyrimidin-1-yl)-ethoxy]-benzyl}-amino)-cyclobutanecarboxylic acid], the IC50 worked out at 240 nM.

With `Cc1cc(CN([C@H]2C[C@@H](C(=O)O)C2)[C@H](C)c2ccc(Cl)cc2)ccc1OCCn1c(=O)ccn(C)c1=O` [Example 136, cis-3-([(R)-1-(4-Chloro-phenyl)-ethyl]-{3-methyl-4-[2-(3-methyl-2,6-dioxo-3,6-dihydro-2H-pyrimidin-1-yl)-ethoxy]-benzyl}-amino)-cyclobutanecarboxylic acid], the IC50 came out at 347 nM.

For `COc1cc(CN(C(C)c2ccc(Cl)c(Cl)c2)[C@H]2C[C@@H](C(=O)O)C2)ccc1OCCN1C(=O)CCC1=O` (stereo partly drawn) [Example 137, cis-3-([1-(3,4-Dichloro-phenyl)-ethyl]-{4-[2-(2,5-dioxo-pyrrolidin-1-yl)-ethoxy]-3-methoxy-benzyl}-amino)-cyclobutanecarboxylic acid], the IC50 was 104 nM.

Turning to `Cc1cc(CN(C(C)c2ccc(Cl)c(Cl)c2)[C@H]2C[C@@H](C(=O)O)C2)ccc1OCCN1C(=O)CCC1=O` (stereo partly drawn) [Example 138, cis-3-([1-(3,4-Dichloro-phenyl)-ethyl]-{4-[2-(2,5-dioxo-pyrrolidin-1-yl)-ethoxy]-3-methyl-benzyl}-amino)-cyclobutanecarboxylic acid], the IC50 turned out to be 670 nM.

The same assay, now with this note: read-out: % at 10 μM; at 10 μM; displacement of 125I-CXCL10.
Turning to `Cc1cc(CN(C(C)c2ccc(Cl)c(F)c2)[C@H]2C[C@H](C(=O)O)C2)ccc1OCCN1C(=O)CCC1=O` (stereo partly drawn) [Example 124, trans-3-([1-(4-Chloro-3-fluoro-phenyl)-ethyl]-{4-[2-(2,5-dioxo-pyrrolidin-1-yl)-ethoxy]-3-methyl-benzyl}-amino)-cyclobutanecarboxylic acid], the inhibition at 10 µM worked out at 24%.

For `Cc1cc([C@@H](C)N(Cc2ccc(OCCN3C(=O)CCC3=O)c(C)c2)[C@H]2C[C@H](C(=O)O)C2)ccc1Cl` [Example 128, trans-3-([(R)-1-(4-Chloro-3-methyl-phenyl)-ethyl]-{4-[2-(2,5-dioxo-pyrrolidin-1-yl)-ethoxy]-3-methyl-benzyl}-amino)-cyclobutanecarboxylic acid], the inhibition at 10 µM is 37%.
